This note sets out measurements from PubChem BioAssay AID1159560 (GlaxoSmithKline (GSK), 2015).

Structures are written as SMILES. The source made the active and inactive calls. How the calls were made is not given here. A value given as a limit tells only on which side of the number the result lay.

This assay deals with Leishmania donovani growth inhibition. Description: antileishmanial activity against L. donovani parasites (AID 1159560).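 Further: parasites exposed to compound for 72 h before the viability read.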
As to `Cc1cc(NC(=O)C2CCCCC2)n(-c2nc3c(c(=O)[nH]2)CCC3)n1`, the half-maximal inhibitory concentration (IC50) (in general, the concentration that gives 50% inhibition) was 0.04 µM.
For `C[C@@H](Oc1cc(-n2cnc3cc(N)ccc32)sc1C(N)=O)c1ccccc1Cl`, the concentration for half-maximal inhibition (IC50) was 3.2 µM.
Consider `Clc1cc(Br)ccc1OCCCCn1ccnc1`, for which the IC50 is 0.13 µM.
Take `O=C(Nc1nc(-c2ccc(S(=O)(=O)N3CCOCC3)cc2)cs1)c1ccc([N+](=O)[O-])cc1`: the IC50 was > 50 µM (inactive).
For the compound `CC(C)CC(=O)NC(c1cccs1)c1ccc2cccnc2c1O` (stereo unspecified), the half-inhibitory concentration (IC50) was 6.3 µM.
For the compound `COc1ccc2ncc(F)c(CCN3CC[C@@H](NC(=O)c4cc5c(s4)CCC5)[C@@H](O)C3)c2n1`, the IC50 was 1 µM.
For `O=C1COC(c2ccccc2)(c2ccccc2)CN1C1CCN(Cc2ccc(-n3ccnc3)cc2)CC1`, the IC50 is 32 µM.
`Cc1c(C(=O)NCCCCn2ccnc2)oc2c(C)cccc12`: the IC50 is > 50 µM (inactive).
Turning to `CC(C)Nc1nccc(-c2c(-c3ccc(F)cc3)ncn2C2CCOCC2)n1`, the IC50 is 25 µM.
As to `CC1=C(C(=O)Nc2ccc(Cl)cc2)C(c2ccncc2)n2ncc(C(=O)Nc3ccccc3)c2N1` (stereo unspecified), the half-inhibitory concentration (IC50) was 0.13 µM.
Take `COc1cc(C2SCC(=O)Nc3c2c(C)nn3-c2nc3ccccc3s2)cc(OC)c1O` (stereo unspecified): the IC50 is 6.3 µM.
Turning to `O=C1CSC(c2cccnc2)N1c1ccc(Cl)cc1Cl` (stereo unspecified), the 50% inhibitory concentration (IC50) was 5 µM.
Turning to `CC(C)c1cc(C(=O)N2CCCC(c3cc4ncccc4[nH]3)C2)on1` (stereo unspecified), the IC50 was > 50 µM (inactive).
`Cc1cc2cncn2c(C2CCCCN2C(=O)c2cccs2)n1` (stereo unspecified): the concentration for half-maximal inhibition (IC50) was 0.4 µM.
Turning to `c1ccc(CCNCc2cncc3nc(-c4cnccn4)n(C4CCCCC4)c23)cc1`, the IC50 is > 50 µM (inactive).
With `O=C(CN(Cc1ccccn1)Cc1ccccn1)NCc1csc(-c2cccs2)n1`, the IC50 is 13 µM.
For the compound `CCOc1ccc2nc(NC(=O)c3ccc([N+](=O)[O-])s3)sc2c1`, the IC50 is 2.5 µM.
`CCCCc1cc(Nc2cc(C3CCC3)[nH]n2)nc(N2CCC2C(N)=O)n1` (stereo unspecified): the IC50 is 4 µM.
As for `COc1ccccc1C(=O)Nc1nnc(-c2ccc3c(c2)OCO3)s1`, the concentration for half-maximal inhibition (IC50) is 1 µM.
With `Cc1cc(N(C)C)nc2ccc(Cc3cnc(N)nc3N)cc12`, the IC50 is > 50 µM (inactive).
With `O=C(Cc1ccc2c(c1)CCC2)Nc1n[nH]c(-c2ccccn2)n1`, the half-maximal inhibitory concentration (IC50) is 7.9 µM.
Regarding `C[C@@H](Oc1cc(-n2cnc3ccc(C(O)CO)cc32)sc1C(N)=O)c1ccccc1C(F)(F)F` (stereo partly specified), the IC50 was 16 µM.
As to `CC(C)(C)c1csc(NC(=O)c2ccc([N+](=O)[O-])s2)n1`, the IC50 was 1.6 µM.
Consider `C=CCn1nc([N+](=O)[O-])nc1Oc1ccc(Cl)cc1Cl`, for which the IC50 is > 50 µM (inactive).
Regarding `O=C(CN1CCN(c2ccccn2)CC1)Nc1cc(S(=O)(=O)N2CCCCCC2)ccc1Cl`, the IC50 is 7.9 µM.
Turning to `CCN(Cc1nc2ccc(C(=O)N3CCN(c4ncccn4)CC3)cc2[nH]1)C1CCCc2cccnc21` (stereo unspecified), the IC50 is 5 µM.
For the compound `Cc1nc(C(=O)Nc2ccc3c(c2)OCO3)nn1-c1ccc(Cl)cc1`, the half-maximal inhibitory concentration (IC50) is 2.5 µM.
Take `COc1ccc(S(=O)(=O)Nc2ccccc2OC)cc1NC(=O)CCCc1c[nH]c2ccccc12`: the IC50 was 25 µM.
To `O=C(NCCc1ccn(-c2ccccc2)n1)C1CCCCC1` belongs > 50 µM (inactive).
As for `CCCC(=O)N(Cc1ccccn1)c1nc2ccccc2s1`, the 50% inhibitory concentration (IC50) was 7.9 µM.
On to `O=C(Nc1nc(-c2ccccn2)cs1)N1C[C@H]2C[C@@]2(c2ccccc2)C1`, for which the concentration for half-maximal inhibition (IC50) is 2 µM.
For `CNc1cc(C)nc(C2CN(C(=O)c3n[nH]c4ccccc34)CCO2)c1` (stereo unspecified), the IC50 is > 50 µM (inactive).
Regarding `CCOc1cc(NCCCN2CCN(C)CC2)c2ncccc2c1`, the concentration for half-maximal inhibition (IC50) was 40 µM.
The result for `CN(C)c1ncc(-c2cncn2CCOc2ccc(Cl)cc2)cn1` reads > 50 µM (inactive); that for `Cc1cc(Nc2cc(C3CC3)[nH]n2)nc(N2CCCC2)n1`, 0.79 µM.
To `CC1=NN(C(=O)CCn2cnc([N+](=O)[O-])n2)C(O)(C(F)(F)F)C1` (stereo unspecified) belongs > 50 µM (inactive); to `COc1cc(C(C)C)c(S(C)(=O)=O)cc1C(=O)N1CCN(c2ccccc2Cl)CC1`, 5 µM.
As for `COc1ccc(S(=O)(=O)Nc2ccc(C(=O)Nc3nc(-c4ccccn4)cs3)cc2)cc1`, the IC50 was 1 µM.
To `Cc1c(C#N)c([N+](=O)[O-])nn1Cc1cccc(Cl)c1Cl` belongs > 50 µM (inactive); to `COc1ccc(OC)c(S(=O)(=O)N(Cc2c(F)cccc2F)[C@@H]2CCN(C#N)C2)c1`, 16 µM.
Turning to `Cc1nn(C2CCS(=O)(=O)C2)c(C)c1CN(C)C(=O)C=Cc1sc2ccccc2c1Cl` (stereo unspecified), the 50% inhibitory concentration (IC50) was 13 µM.
To `CCN(CC)c1ccc(S(=O)(=O)N(CC)CC)c2nonc12` belongs 6.3 µM; to `CC(C)C[C@H](NC(=O)c1csc(-c2cccs2)n1)C(=O)NC1(C#N)CC1`, 5 µM; to `CCc1c(C)nc(-n2nc(C)cc2NC(=O)COc2ccccc2F)[nH]c1=O`, 0.13 µM.
The result for `CC(C)(C)C(=O)NCCc1csc(-c2ccc(F)cc2)n1` reads > 50 µM (inactive).
As to `CN(C)S(=O)(=O)c1cccc(C(=O)Nc2nc(-c3ccccn3)cs2)c1`, the concentration for half-maximal inhibition (IC50) was 1.3 µM.
`O=C(c1cccc(Cl)c1Cl)N1CCn2c1nc(-c1ccncc1)cc2=O`: the IC50 was 50 µM.
Consider `COc1ccc(NS(=O)(=O)c2ccc(S(=O)(=O)N(C)C3CCCCC3)cc2)c2ncccc12`, for which the IC50 is > 50 µM (inactive).
Consider `Cc1cn[nH]c1C1CCCN(Cc2nc3ccccc3n2C)C1` (stereo unspecified), for which the IC50 was 16 µM.
As for `COc1ccc2nccc(NC(=O)C3(OC)CCN(CC(O)c4ccc5c(c4)OCCO5)CC3)c2n1` (stereo unspecified), the IC50 was 10 µM.
`CC(C(=O)Nc1ccc(Br)cc1)N1CCN(c2ccc([N+](=O)[O-])cc2)CC1` (stereo unspecified): the IC50 is > 50 µM (inactive).
On to `O=C(NCCc1cccnc1)c1ccc(-c2ccccc2F)o1`, for which the half-maximal inhibitory concentration (IC50) is 20 µM.
To `CNC(=O)C1Cc2ccccc2N1C(=O)COc1cccc(OC)c1` (stereo unspecified) belongs > 50 µM (inactive); to `CCOC(=O)c1cn[nH]c1S(=O)(=O)N1CCC1c1ccccc1` (stereo unspecified), > 50 µM (inactive).
Regarding `COc1ccccc1C=CCN1C[C@H]2CCC[C@@H](C1)C2(O)c1cccnc1` (stereo partly specified), the IC50 is > 50 µM (inactive).
In the case of `COc1cccc(S(=O)(=O)Nc2ccc3c(c2)CC(N2CCC(NC(=O)C4CC4)CC2)C3)c1` (stereo unspecified), the IC50 was > 50 µM (inactive).
As to `c1ccc2c(CCOc3nccnc3-c3ccncc3)c[nH]c2c1`, the IC50 was 5 µM.
In the case of `Cc1nc(-c2ccncc2)ncc1C(C)NC(=O)c1ccc(Cl)s1` (stereo unspecified), the IC50 was > 50 µM (inactive).
For `O=C(N1CCc2ccccc2CC1)C1(C(=O)N2CCC(n3c(=O)[nH]c4ncccc43)CC2)CC1`, the IC50 is > 50 µM (inactive).
To `O=C(Nc1nc2ccccc2[nH]1)c1c(O)c2cccc3c2n(c1=O)CC3` belongs 2.5 µM; to `Cc1cc(N(C)C)nc(Nc2ccccc2C)n1`, > 50 µM (inactive).
For `COc1ccc2ncc(Cl)c(CCN3CC[C@H](NCc4cc5c(cn4)OCS5)[C@@H](O)C3)c2n1`, the half-inhibitory concentration (IC50) was 2 µM.
As to `Cc1ccc(NC(=O)c2ccnc(N3CCCC3)c2)cc1-c1ccsc1C(N)=O`, the IC50 was > 50 µM (inactive).
To `O=C(Nc1nc(-c2ccccn2)cs1)c1ccccc1-n1cnnn1` belongs 3.2 µM; to `Cc1cc2cc(CNc3ccc4c(c3)OCO4)c(=O)n(CCO)c2cc1C`, 6.3 µM; to `CS(=O)(=O)c1ccc(Nc2nccc(Nc3n[nH]c4ccc(F)cc34)n2)c(F)c1`, 13 µM.
With `O=C(Nc1ccc(S(=O)(=O)N2CCCC2)cc1)c1ccc([N+](=O)[O-])s1`, the half-maximal inhibitory concentration (IC50) is 7.9 µM.
In the case of `CN(C)S(=O)(=O)c1ccc(Cl)c(C(=O)Nc2nc(-c3ccccn3)cs2)c1`, the concentration for half-maximal inhibition (IC50) is 2 µM.
To `OC1CCC(Nc2nccc(-c3sc(C4CCOCC4)nc3-c3ccc(F)c(F)c3)n2)CC1` (stereo unspecified) belongs 3.2 µM; to `CNC(=O)Oc1ccc(C(=O)NCc2ccccc2)cc1OC(=O)NC`, > 50 µM (inactive); to `Cc1cccc(NS(=O)(=O)c2ccc3c(c2)C(=O)c2cc(S(=O)(=O)Nc4cccc(C)c4C)ccc2-3)c1C`, > 50 µM (inactive).
As for `Cc1cc(Nc2cc(C3CC3)[nH]n2)nc(N2CCC[C@H]2C(N)=O)n1`, the IC50 is 0.63 µM.
As for `Cc1cccc(NS(=O)(=O)c2cnc3sc(C)cn3c2=O)c1`, the IC50 was > 50 µM (inactive).
To `COCc1cnc2c(c1SCc1c(F)cccc1Cl)c(=O)n(C)c(=O)n2C` belongs 4 µM.
Regarding `COc1ccc(Nc2nc(NC3CCC(O)CC3)ncc2Br)c(C(N)=O)c1` (stereo unspecified), the 50% inhibitory concentration (IC50) is 3.2 µM.
In the case of `O=C(CN(c1cccc(C(F)(F)F)c1)S(=O)(=O)c1ccc(Cl)cc1)NCc1ccc(F)c(F)c1`, the IC50 was > 50 µM (inactive).
Take `c1cncc(CN(Cc2ccco2)Cc2cn[nH]c2-c2cccs2)c1`: the IC50 is 32 µM.
As to `CC(C)(C)C(=O)Nc1cc(C2CC2)nn1-c1nc2c(c(=O)[nH]1)CCCC2`, the IC50 is 0.079 µM.
As to `Cc1[nH]nc(C(F)(F)F)c1NC(=O)CCn1cc(Cl)c([N+](=O)[O-])n1`, the IC50 was > 50 µM (inactive).
To `Cc1cccc(Nc2nc(-c3ccccn3)cs2)n1` belongs 4 µM; to `CCc1cc(C(=O)Nc2nccn2-c2ccccc2)cs1`, 6.3 µM; to `CS(=O)(=O)N1CCC(Nc2ncc(Br)c(Nc3cccc(F)c3C(N)=O)n2)CC1`, 0.1 µM.
Take `N#Cc1cc([N+](=O)[O-])ccc1NC1CCCCCC1`: the IC50 was > 50 µM (inactive).
For `COc1cc(OC)cc(C(=O)N[C@@H](CC(C)C)C(=O)NC2(C#N)CC2)c1`, the IC50 is > 50 µM (inactive).
In the case of `COc1cc2c(cc1OC)[C@H]1[C@@H](C)c3ccc(OC)c(OC)c3CN1CC2`, the half-maximal inhibitory concentration (IC50) was 2.5 µM.
For the compound `c1ccc(-c2nc(NCc3ccco3)c3ccccc3n2)nc1`, the half-inhibitory concentration (IC50) was 3.2 µM.
For `COc1ccc(Oc2ccc(C(C)N(C)c3ncc4c(N)nc(N)nc4n3)cc2)cc1` (stereo unspecified), the IC50 was 0.04 µM.
With `Cc1ccc(NC(=O)c2ccnc(N3CCCC3)c2)cc1-c1cc(C(N)=O)ccc1C`, the IC50 was 25 µM.
Take `O=C(Nc1ccc(Br)c(Cl)c1)Nc1ccc2c(c1)OCO2`: the IC50 is > 50 µM (inactive).
Consider `c1ccc(CNc2cccc3ccncc23)cc1`, for which the IC50 is 10 µM.
The result for `COc1cccc(CCNC(=O)C(c2cn[nH]c2)N2CCN(c3ccc(Cl)cc3)CC2)c1` (stereo unspecified) reads 13 µM.
